US8912141B2, “Treatment of hepatitis C virus” (Panmed Ltd., priority 2011, dated 2014)
“Also recorded” adds a separate entry of the source. Where two headings read alike, the source gives them in different places.

Tests used:
HCV replicon = HCV replicon antiviral assay in Huh7 cells, HCV RNA by RT-PCR, 72 hours; combinations analysed by Prichard-Shipman / Bliss independence; assay type: cell-based, hepatitis C virus
Procedure: Huh7 cells were maintained at 37° C., in an atmosphere of 5% CO2, in DMEM (Dulbecco's modified Eagle medium) supplemented with 2 mM L-glutamine, non-essential amino acids (NEAA), 10% fetal bovine serum (FBS) and […] geneticin. Cells were sub-divided at a 1:3 or 1:4 ratio every 2-3 days. 24 hours prior to the assay, Huh7 cells were collected, counted, plated in 96-well plates at 7,500 cells/well in […] standard maintenance medium, and incubated in the conditions above. To initiate the assay, culture medium was removed, and cells were washed once with PBS (phosphate buffer saline). For control compounds only, […] assay medium (DMEM with L-glutamine, NEAA, and 10% FBS) was added.
Test compounds were prepared as a 10× stock in assay medium. Serial dilutions of compounds in assay medium were added in a total volume of […] and the plates were then rocked to mix, and incubated as described above for 72 hours.
HCV RNA levels were measured using TaqMan® RT-PCR. Total cellular RNA was isolated and amplified by using a RealTime HCV assay (m1000™ Automated Sample Preparation System and M2000rt™ instrument for reverse transcription, PCR amplification, and detection/quantitation, Abbott Molecular Inc.), which detects and quantitates HCV genotypes 1-6. The molecular genotyping method targets the 5′-untranslated (UTR) region of the virus genome and is based on an amplification of the viral genome. […] A negative control, low positive control and high positive control were also introduced. Results are reported in International Units per ml (IU/ml), and 1 IU/ml=4.3 copies/ml. […]
The effects of drug combinations were evaluated according to the method described by Prichard & Shipman [Antiviral Res 1990, 14:181-205]. The theoretical additive effect was calculated from the dose-response curves of individual compounds by the equation Z=X+Y(1−X) (an equation referred to in the art as a Bliss independence model), where X and Y represent the inhibition produced by the individual compounds and Z represents the theoretical effect produced by the combination of compounds. […]

[1] = cited from earlier work
various proteases = experiment: Protease inhibition; assay type: biochemical

CCN(CCO)CCCC(C)Nc1ccnc2cc(Cl)ccc12 (centres unmarked) [HCQ, 2-[[4-[(7-chloro-4-quinolinyl)amino]pentyl]ethylamino]ethanol]
HCQ concentration at which synergy was best achieved (HCV replicon; in combination with GNS-227): about 6 μM
toxicity relative to chloroquine ([1]; in vivo): less toxic
toxicity relative to chloroquine ([1]; in vivo, listed as hydroxychloroquine): one-half as toxic
effectiveness relative to chloroquine ([1]; treating rheumatologic diseases): one-half to two-thirds as effective as chloroquine

C=C[C@@H]1C[C@]1(NC(=O)[C@@H]1C[C@@H](OC(=O)N2Cc3cccc(F)c3C2)CN1C(=O)[C@@H](NC(=O)OC(C)(C)C)C(C)(C)C)C(=O)NS(=O)(=O)C1CC1 [GNS-227]
antiviral activity towards HCV (HCV replicon): an antiviral activity towards HCV
GNS-227 concentration at which synergy was best achieved (HCV replicon; in combination with HCQ): about 3.7 nM
protease inhibition activity (various proteases): exhibit inhibition activity on various proteases; also recorded: exhibit a protease inhibition activity

CCN(CC)CCCC(C)Nc1ccnc2cc(Cl)ccc12 (centres unmarked) [chloroquine]
retinotoxicity relative to hydroxychloroquine ([1]; in vivo): much more retinotoxic
